Laboratory results published in patent US12479856B2, “Pharmaceutical compounds for the treatment of complement mediated disorders” (Achillion Pharmaceuticals, Inc., priority 2019, dated 2025).
pIC50: −log10 of the molar value. Read-outs that look alike come from different tables or passages of the source.

Target: T1, Human complement C1s enzyme (Homo sapiens, UniProt P09871)
T1 construct: purified from human serum, Complement Technology, Inc; purchased Complement Technology, Inc; host or cells: human serum (plasma-derived natural protein)
T1 sequence (P09871 438-688 limits assumed): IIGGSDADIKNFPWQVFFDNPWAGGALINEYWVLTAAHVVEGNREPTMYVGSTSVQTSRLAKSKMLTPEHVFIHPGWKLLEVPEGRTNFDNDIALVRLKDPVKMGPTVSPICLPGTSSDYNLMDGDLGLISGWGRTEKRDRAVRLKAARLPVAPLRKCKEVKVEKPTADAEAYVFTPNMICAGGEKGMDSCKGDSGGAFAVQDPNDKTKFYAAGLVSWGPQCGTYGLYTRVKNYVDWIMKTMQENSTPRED
T1 sequence (P09871 16-437 partner limits assumed): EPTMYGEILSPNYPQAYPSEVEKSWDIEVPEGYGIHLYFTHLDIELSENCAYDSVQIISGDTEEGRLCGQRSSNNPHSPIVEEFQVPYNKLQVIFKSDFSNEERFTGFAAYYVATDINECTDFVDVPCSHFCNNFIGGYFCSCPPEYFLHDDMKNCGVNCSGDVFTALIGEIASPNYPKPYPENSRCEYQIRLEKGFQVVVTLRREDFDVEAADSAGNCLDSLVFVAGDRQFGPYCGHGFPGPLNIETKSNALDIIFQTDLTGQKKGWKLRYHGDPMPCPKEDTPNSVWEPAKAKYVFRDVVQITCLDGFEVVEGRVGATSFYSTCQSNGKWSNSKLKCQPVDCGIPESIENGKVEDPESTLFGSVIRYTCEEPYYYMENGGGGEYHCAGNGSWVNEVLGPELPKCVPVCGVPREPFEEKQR
Assay: Human C1s Enzyme Assay
Format: biochemical
Details: C1s purified from human serum, 1.16 nM, substrate Z-L-Lys-SBzl, read-out: C1s Protease Activity
Procedure: Example 4. Human C1s Enzyme Assay
Human complement C1s enzyme (purified from human serum, Complement Technology, Inc.) at 1.16 nM final concentration is incubated with test compound at various concentrations for 5 min at room temperature in 50 mM Tris, 1 M NaCl, pH 7.5. A synthetic substrate Z-L-Lys-SBzl and DTNB (Ellman's reagent) are added to final concentrations of 100 μM each. Absorbance at 405 nm (A405) is recorded at 30 second intervals for 30 min using a microplate spectrophotometer. IC50 values are calculated by nonlinear regression of complement C1s reaction rates as a function of test compound concentration.

Row | SMILES | pIC50 (Table 2) | pIC50 (Table 1) | also measured
1 | CCCCCCc1ccc(C(=O)NCC(=O)N2CCC[C@H]2C(=O)NCc2cc(C(=N)N)cs2)cc1 [Compound 75, (S)-N-((4-carbamimidoylthiophen-2-yl)methyl)-1-((4-hexylbenzoyl)glycyl)pyrrolidine-2-carboxamide] | > 7.00 | – | –
2 | N=C(N)c1csc(CNC(=O)[C@@H]2CC(=O)CN2C(=O)CNC(=O)c2ccc(Oc3ccccc3)cc2)c1 [Compound 15, (2S)—N-[(4-Carbamimidoylthiophen-2-yl)methyl]-4-oxo-1-{2-[(4-phenoxyphenyl)formamido]acetyl}pyrrolidine-2-carboxamide] | – | > 7.00 | –
3 | CCCc1cc(C(=O)NCC(=O)N2CCC[C@H]2C(=O)NCc2cc(C(=N)N)cs2)ccc1Oc1ccccc1 [Compound 41, (S)-N-((4-carbamimidoylthiophen-2-yl)methyl)-1-((4-phenoxy-3-propylbenzoyl)glycyl)pyrrolidine-2-carboxamide] | > 7.00 | – | –
4 | N=C(N)c1csc(CNC(=O)[C@@H]2CCCN2CCCC(=O)c2ccc(Oc3ccccc3)cc2)c1 [Compound 54, (S)-N-((4-carbamimidoylthiophen-2-yl)methyl)-1-(4-oxo-4-(4-phenoxyphenyl)butyl)pyrrolidine-2-carboxamide] | < 6.00 | – | –
5 | CCCCc1cc(C(=O)NCC(=O)N2CCC[C@H]2C(=O)NCc2cc(C(=N)N)cs2)ccc1Oc1ccccc1 [Compound 43, (S)-1-((3-butyl-4-phenoxybenzoyl)glycyl)-N-((4-carbamimidoylthiophen-2-yl)methyl)pyrrolidine-2-carboxamide] | > 7.00 | – | –
6 | N=C(N)c1csc(CNC(=O)[C@@H]2C[C@@H](OC(F)F)CN2C(=O)CNC(=O)c2ccc(Oc3ccccc3)cc2)c1 [Compound 101, (2S,4R)-N-((4-carbamimidoylthiophen-2-yl)methyl)-4-(difluoromethoxy)-1-((4-phenoxybenzoyl)glycyl)pyrrolidine-2-carboxamide] | – | – | pIC50 (Table 3): > 7.00
7 | Cc1cc(C(=O)NCC(=O)N2CC3(CCCC3)C[C@H]2C(=O)NCc2cc(C(=N)N)cs2)ccc1Oc1ccccc1 [Compound 46, (S)-N-((4-carbamimidoylthiophen-2-yl)methyl)-2-((3-methyl-4-phenoxybenzoyl)glycyl)-2-azaspiro[4.4]nonane-3-carboxamide] | > 7.00 | – | –
8 | C[C@@]12C[C@@H]1N(C(=O)CNC(=O)c1ccc(Oc3ccccc3)cc1)[C@H](C(=O)NCc1cc(C#N)cs1)C2 [Compound 93, (1S,3S,5S)-N-((4-cyanothiophen-2-yl)methyl)-5-methyl-2-((4-phenoxybenzoyl)glycyl)-2-azabicyclo[3.1.0]hexane-3-carboxamide] | – | – | pIC50 (Table 3): < 6.00
9 | CC(=O)Nc1cccc(CNC(=O)[C@@H]2CC3(CN2C(=O)CNC(=O)c2ccc(Oc4ccccc4)cc2)OCCO3)c1 [Compound 20, (8S)—N-[(3-Acetamidophenyl)methyl]-7-{2-[(4-phenoxyphenyl)formamido]acetyl}-1,4-dioxa-7-azaspiro[4.4]nonane-8-carboxamide] | – | < 6.00 | –
10 | CN(C)CCCC(=O)NCC(=O)N1CCC[C@H]1C(=O)NCc1cc(C(=N)N)cs1 [Compound 69, (S)-N-((4-carbamimidoylthiophen-2-yl)methyl)-1-((4-(dimethylamino)butanoyl)glycyl)pyrrolidine-2-carboxamide] | < 6.00 | – | –
11 | C[C@@]12C[C@@H]1N(C(=O)CNC(=O)c1ccc(Oc3ccccc3)cc1)[C@H](C(=O)NCc1ccc(C(=N)N)s1)C2 [Compound 107, (1S,3S,5S)-N-((5-carbamimidoylthiophen-2-yl)methyl)-5-methyl-2-((4-phenoxybenzoyl)glycyl)-2-azabicyclo[3.1.0]hexane-3-carboxamide] | – | – | pIC50 (Table 3): > 7.00
12 | N=C(N)c1csc(CNC(=O)[C@@H]2C[C@@H](O)CN2C(=O)CNC(=O)c2ccc(Oc3ccccc3)cc2)c1 [Compound 31, (2S,4R)—N-[(4-carbamimidoylthiophen-2-yl)methyl]-4-hydroxy-1-{2-[(4-phenoxyphenyl)formamido]acetyl}pyrrolidine-2-carboxamide] | – | > 7.00 | –
13 | N=C(N)c1csc(NC(=O)[C@@H]2CC3(CN2C(=O)CNC(=O)c2ccc(Oc4ccccc4)cc2)OCCO3)c1 [Compound 91, (S)-N-(4-carbamimidoylthiophen-2-yl)-7-((4-phenoxybenzoyl)glycyl)-1,4-dioxa-7-azaspiro[4.4]nonane-8-carboxamide] | – | – | pIC50 (Table 3): < 6.00
14 | C=C1C[C@@H](C(=O)NCc2cc(C(=N)N)cs2)N(C(=O)CNC(=O)c2ccc(Oc3ccccc3)cc2)C1 [Compound 6, (2S)—N-[(4-Carbamimidoylthiophen-2-yl)methyl]-4-methylidene-1-{2-[(4-phenoxyphenyl)formamido]acetyl}pyrrolidine-2-carboxamide] | – | > 7.00 | –
15 | N=C(N)CCCNC(=O)[C@@H]1CCCN1C(=O)CNC(=O)c1ccc(Oc2ccccc2)cc1 [Compound 28, (S)-N-(4-amino-4-iminobutyl)-1-((4-phenoxybenzoyl)glycyl)pyrrolidine-2-carboxamide] | – | < 6.00 | –
16 | CCCc1ccc(C(=O)NCC(=O)N2CCC[C@H]2C(=O)NCc2cc(C(=N)N)cs2)cc1 [Compound 72, (S)-N-((4-carbamimidoylthiophen-2-yl)methyl)-1-((4-propylbenzoyl)glycyl)pyrrolidine-2-carboxamide] | > 7.00 | – | –
17 | CO[C@H]1C[C@@H](C(=O)CNC(=O)c2ccc(Oc3ccccc3)cc2)[C@H](C(=O)NCc2cc(C(=N)N)cs2)C1 [Compound 35, N-(2-((1R,2R,4S)-2-(((4-carbamimidoylthiophen-2-yl)methyl)carbamoyl)-4-methoxycyclopentyl)-2-oxoethyl)-4-phenoxybenzamide] | – | 6.00 to 7.00 | –

Further lines, with some results ahead:

Row | pIC50 (Table 2) | pIC50 (Table 1) | SMILES | also measured
18 | – | > 7.00 | N=C(N)c1csc(CNC(=O)C2CC3(CCC3)CN2C(=O)CNC(=O)c2ccc(Oc3ccccc3)cc2)c1 (stereo not shown) [Compound 11, N-[(4-Carbamimidoylthiophen-2-yl)methyl]-6-{2-[(4-phenoxyphenyl)formamido]acetyl}-6-azaspiro[3.4]octane-7-carboxamide] | –
19 | – | > 7.00 | N=C(N)c1ccc(CNC(=O)[C@@H]2CC3(CN2C(=O)CNC(=O)c2ccc(Oc4ccccc4)cc2)OCCO3)cc1 [Compound 19, (8S)—N-[(4-Carbamimidoylphenyl)methyl]-7-{2-[(4-phenoxyphenyl)formamido]acetyl}-1,4-dioxa-7-azaspiro[4.4]nonane-8-carboxamide] | –
20 | – | > 7.00 | N=C(N)c1csc(CNC(=O)[C@@H]2CC3(CCCC3)CN2C(=O)CNC(=O)c2ccc(Oc3ccccc3)cc2)c1 [Compound 12, (3S)—N-[(4-Carbamimidoylthiophen-2-yl)methyl]-2-{2-[(4-phenoxyphenyl)formamido]acetyl}-2-azaspiro[4.4]nonane-3-carboxamide] | –
21 | > 7.00 | – | N/C(=N\O)c1csc(CNC(=O)[C@@H]2CC3(CN2C(=O)CNC(=O)c2ccc(Oc4ccccc4)cc2)OCCO3)c1 [Compound 66, (S,Z)-N-((4-(N′-hydroxycarbamimidoyl)thiophen-2-yl)methyl)-7-((4-phenoxybenzoyl)glycyl)-1,4-dioxa-7-azaspiro[4.4]nonane-8-carboxamide] | –
22 | – | < 6.00 | N=C(N)c1cccc(CNC(=O)[C@@H]2CC3(CN2C(=O)CNC(=O)c2ccc(Oc4ccccc4)cc2)OCCO3)c1 [Compound 18, (8S)—N-[(3-Carbamimidoylphenyl)methyl]-7-{2-[(4-phenoxyphenyl)formamido]acetyl}-1,4-dioxa-7-azaspiro[4.4]nonane-8-carboxamide] | –
23 | > 7.00 | – | Cc1cc(C(=O)NCC(=O)N2CC3(C[C@H]2C(=O)NCc2cc(C(=N)N)cs2)OCCO3)ccc1Oc1ccccc1 [Compound 47, (S)-N-((4-carbamimidoylthiophen-2-yl)methyl)-7-((3-methyl-4-phenoxybenzoyl)glycyl)-1,4-dioxa-7-azaspiro[4.4]nonane-8-carboxamide] | –
24 | – | 6.00 to 7.00 | N=C(N)c1csc(CNC(=O)C2CC3(CC3)CN2C(=O)CNC(=O)c2ccc(Oc3ccccc3)cc2)c1 (stereo not shown) [Compound 10, N-[(4-Carbamimidoylthiophen-2-yl)methyl]-5-{2-[(4-phenoxyphenyl)formamido]acetyl}-5-azaspiro[2.4]heptane-6-carboxamide] | –
25 | – | < 6.00 | Nc1cc(CCNC(=O)[C@@H]2CC3(CN2C(=O)CNC(=O)c2ccc(Oc4ccccc4)cc2)OCCO3)ccn1 [Compound 24, (8S)—N-[2-(2-Aminopyridin-4-yl)ethyl]-7-{2-[(4-phenoxyphenyl)formamido]acetyl}-1,4-dioxa-7-azaspiro[4.4]nonane-8-carboxamide] | –
